Results as given in a melting point compilation (Tetko et al.; mined from patent text by program, amines drawn as free bases though some values may be those of a salt).

Row | Compound | melting point [°C]
1 | O=C(Cc1cncs1)c1ccc(Cl)cc1Cl | 75 to 77
2 | Cc1cc(C)n2ncc([N+](=O)[O-])c2n1 | 156 to 157
3 | C=CCN1CCN2c3ccccc3Cn3cccc3C2C1 (stereo unspecified) | 130 to 132
4 | CCCc1nn(-c2ccc(C(F)(F)F)cn2)cc1CCCOc1cc(CC(=O)O)ccc1OC | 124 to 126
5 | CCOC(=O)Cc1c(CCc2ccc(O)cc2)oc2ccc(C#N)cc12 | 134 to 136
6 | CCOC(=O)c1ccc(N=C(Nc2ccc(C(=O)OCC)cc2)c2ccc(Cl)cc2)cc1 | 171 to 172
7 | Cc1cc2c(cc1N(C)C=O)N1CCN=C1S2 | 164
8 | CC1CC(=O)c2cc(Cl)cc(Cl)c2O1 (stereo unspecified) | 98 to 102
9 | COc1cnc(CSc2nc3cc(OC(F)(F)C(F)F)ccc3[nH]2)c(C)c1OC | 127 to 128
10 | COc1ccc(-c2cc(-c3ccc(F)cc3)ccc2C(=O)N2CCOCC2)cc1OC | 153
11 | O=c1n(CCO)c2ccccc2n1CCO | 145 to 158
12 | CCC(C(C)=CC(CNC(=O)c1nc[nH]n1)=NO)[N+](=O)[O-] (stereo unspecified) | 131 to 136
13 | Nc1cc(Cl)cc([N+](=O)[O-])c1C(=O)O | 202 to 205
14 | COc1ccc(C(=O)NCCBr)c([N+](=O)[O-])c1 | 134
15 | CCCCC/C(=C\C=C\C(=O)Oc1ccc([N+](=O)[O-])cc1)c1ccc(OC)cc1 | 46 to 47
16 | Cc1noc(NS(=O)(=O)c2cc(Cl)c(Cl)cc2Cl)c1Br | 179 to 182
17 | COc1cccc2ccc(Cl)nc12 | 90 to 92
18 | CC(C)(C)OC(=O)NC1COCCCC=CC2CC2(C(=O)NS(=O)(=O)C2CC2)NC(=O)C2CC(OC(=O)c3ccc(Oc4ccccc4)cc3)CN2C1=O (stereo unspecified) | 207 to 209
19 | CCCc1ccc(C(=O)Nc2ccc(C(=O)c3ccccc3)cc2)cc1 | 119 to 122
20 | O=C1N(CCN2CCC(c3noc4cc(F)ccc34)CC2)CCN1Cc1ccccc1 | 126 to 130
21 | CCNc1ccc(NC(=O)c2ccc(C)c(Nc3nccc(-c4cccnc4)n3)c2)cc1C(F)(F)F | 178 to 180
22 | COc1cccc(NC(=O)c2cc(-c3ccc(F)cc3F)ccc2O)c1 | 187 to 188
23 | Cc1ccc(-c2cc(OCC(=O)N3CCSCC3)c3c(C(F)(F)F)cccc3n2)cc1 | 154
24 | CCn1cc(C(=O)O)c(=O)c2cc(F)c(N3CCN(S(=O)(=O)c4ccc(Cl)cc4)CC3)c(F)c21 | 231 to 233

Row | Compound | melting point [°C]
25 | COc1ccc(N2CCN(C)[C@@H]3Cc4ccccc4[C@H]32)c(CO)c1 (relative stereo) | 179 to 183
26 | CCCNC(=O)N1c2ccc(S(=O)(=O)n3cc(-c4ccccc4)[nH]c3=O)cc2CC1C (stereo unspecified) | 138
27 | CC(=O)c1nc(-c2ccc(=O)n(C(C)C)n2)c(-c2ccccc2)nc1N | 234 to 236
28 | CCOC(=O)C1=C(C)NC(C)=C(C(=O)OCC2CC2)C1c1cccc([N+](=O)[O-])c1 (stereo unspecified) | 169 to 170
29 | CCCC(=O)NS(=O)(=O)c1cccc(-c2cccc(-c3cc(-c4ccc(C(F)(F)F)cc4)cc(C)n3)n2)c1 | 188
30 | CCCCCC(COc1ccc(C(=O)O)cc1)c1ccc2c(c1)C(C)(C)CC(C)(C)O2 (racemic) | 94 to 96
31 | COCCN(CCOC)C(=O)c1n[nH]c2c(=O)[nH]c3cc(Cl)ccc3c(=O)c12 | 207 to 209
32 | Cc1cccc(CC2CNC(=O)O2)c1 (stereo unspecified) | 89 to 90.5
33 | CC(NC(=O)c1cccnc1Oc1ccc(F)cc1)c1ccc(Cl)s1 (single isomer, unassigned; (+)) | 78 to 80
34 | O=C(Oc1ccc2ncccc2c1)c1ccccc1 | 77 to 79
35 | CCOC(=O)CCNc1ncccc1NC(=O)c1cccc(Cl)c1 | 111 to 112
36 | COc1cc2c(cc1OC)[C@@H]1CCCC[C@@H]1N=C2c1ccc(N(S(=O)(=O)c2ccc([N+](=O)[O-])cc2)S(=O)(=O)c2ccc([N+](=O)[O-])cc2)cc1 (racemic) | 234
37 | Nc1cccc(Sc2cccc3c2C(=O)c2cccc(Sc4cccc(N)c4)c2C3=O)c1 | 292 to 293
38 | CCOC(=O)c1cn(C2CC2)c2c(F)c(NCCO)c(F)c(F)c2c1=O | 193 to 195
39 | O=C1c2c(Cl)cccc2-n2cnc(-c3nnco3)c2[C@@H]2CCCN12 | 229 to 230
40 | Cc1cccc(-c2n[nH]cc2-c2ccc(F)c(-c3ccc(S(N)(=O)=O)c(C(F)(F)F)c3)c2)n1 | 107 to 110
41 | COc1nc(Nc2ccc(C)cc2[N+](=O)[O-])nc(OC)n1 | 189 to 191
42 | CC(C)N[C@H](C(=O)NCCCC(c1ccc(F)cc1)c1ccc(F)cc1)C(C)C | 72 to 80
43 | Cc1cccc(-c2[nH]nnc2-c2ccc3c(c2)NC(=O)CO3)n1 | 224
44 | O=C(O)c1ccc2c(c1)Sc1ccccc1O2 | 253
45 | COc1ccc(-n2nc(Sc3ccc(C(F)(F)F)cc3)c(C)c(C#N)c2=O)cc1 | 151 to 155
46 | O=C(c1ccccc1)N1CCSc2cccc(Cl)c2C1 | 64 to 72
47 | N#Cc1ccc2c(c1)Sc1ccccc1CC2=O | 166 to 170
48 | Cc1c(C)c2c(c(C)c1NC=O)CC(C)(CO)O2 (stereo unspecified) | 149 to 150

Row | Compound | melting point [°C]
49 | CC(=O)CC(=O)C=Cc1ccccc1 | 82
50 | O=C(O)Cc1cccc(OCCCNCC(c2ccccc2)c2ccccc2)c1 | 49.1
51 | CCOc1ccc(C2=NN(C3CCN(C(=O)Nc4ccccc4)CC3)C(=O)[C@@H]3CC=CC[C@H]23)cc1OCC | 109 to 112
52 | O=c1n(CC2CN(Cc3ccccc3)CCO2)c2ccccc2n1-c1ccccc1 (stereo unspecified) | 90
53 | CN=C(NS(=O)(=O)c1ccc(Cl)cc1)SC | 121 to 123
54 | Nc1nc(SCc2nc(C3CC3)no2)ncc1Cc1ccccc1 | 94
55 | CC1(C)CC(CNS(=O)(=O)c2ccc(Cl)cc2)(Cc2ccc(CC(=O)O)cc2)C1 | 140 to 142
56 | CS(=O)(=O)c1ccc(-n2nc(C(F)(F)F)cc2-c2ccc(-c3cscn3)cc2)cc1Cl | 103 to 107
57 | Cc1oc2c(-n3c(=O)cc(C(F)(F)F)n(C)c3=O)c(F)cc(Cl)c2c1C=O | 148 to 150
58 | CN(C)N=C(CCC(=O)O)c1ccc(-c2ccc(Cl)cc2)cc1 | 158 to 160
59 | O=C(O)c1cc(S(=O)(=O)N2CCC(CO)CC2)ccc1Cl | 185 to 187
60 | CCCCCN1C(=O)CN=C(c2ccccc2)c2ccccc21 | 93 to 95
61 | CCCOc1ccc(-c2ccc3c(c2)C=C(C(=O)Nc2ccc(CN(C)C4CCOCC4)cc2)CCS3(=O)=O)cc1 | 244 to 247
62 | S=c1[nH]cnn1C[C@]1(c2ccccc2)O[C@@H]1c1ccc(Cl)c(Cl)c1Cl (relative stereo) | 168 to 171
63 | COC(=O)c1cc(F)c(O)nc1Nc1ccc(F)cc1F | 222 to 223
64 | COc1ccc(C(=O)CN2CCNC2=O)cc1OC | 167
65 | CCN(CC)C(=O)C(C#N)=Cc1cc(O)c(O)c([N+](=O)[O-])c1 | 156 to 160
66 | CCCCCc1c(C(C)C)nc(C(C)C)c(CO)c1-c1cccc(Cl)c1 | 94 to 95
67 | Cn1nc(-c2c(Cl)cncc2Cl)nc1Cc1ccc(Cl)cc1 | 142 to 143
68 | O=C(Cc1ccccc1F)N1C(=O)OC[C@H]1c1ccccc1 | 110 to 111
69 | Cc1ccc2c(c1)C1(CCN(CCCC(=O)c3ccc(F)cc3)C1)CC2O (stereo unspecified) | 172 to 174
70 | CC1(C)CC(NC(=O)C(=O)NNC(=O)COc2ccc(C(=O)c3ccccc3)c(O)c2)CC(C)(C)N1 | 191 to 195
71 | CC(=O)c1cc(O)c(C)c(C)c1O | 151
72 | CCOC(=O)NC(C(=O)NN(Cc1ccc(-c2cncs2)cc1)CC(O)C(Cc1ccccc1)NC(=O)C(NC(=O)OC)C(C)CC)C(C)C (stereo unspecified) | 200 to 203

Row | Compound | melting point [°C]
73 | Cn1ccnc1CCNS(=O)(=O)c1ccccc1NS(=O)(=O)c1cccc(C(F)(F)F)c1 | 171 to 176
74 | COc1cc(-c2oc3ccccc3c(=O)c2OCC(O)CN2CCN(c3ccccc3)CC2)cc(OC)c1OC (stereo unspecified) | 170 to 171
75 | FC(F)(F)c1cccc(Nc2nccc(-c3cccnc3)n2)c1 | 170 to 171
76 | COc1ccc(Oc2ccc(C(C)=C3SCCCS3=O)cc2)cc1 (stereo unspecified) | 136 to 138
77 | O=C(CSc1nc2ccccc2s1)c1ccc2[nH]c3ncc(Cl)cc3c2c1 | 241 to 242
78 | OC1CCC(Nc2nc(Cl)nc(Cl)n2)CC1 (stereo unspecified) | 120
79 | CCOC(=O)C(C(=O)N(C)C)=C(OC)c1ccc(Cl)cc1Cl | 88 to 92
80 | CCOCn1c(Cc2ccccc2)c(C(C)C)c(=O)[nH]c1=O | 111
81 | CON=C(Nc1nc(C)cc(C)n1)NS(=O)(=O)c1ccccc1-c1ccccc1 | 190 to 192
82 | Cc1ccc(C)n1S(=O)(=O)c1ccc(CC(=O)c2ccccc2)cc1 | 94.6 to 98.8
83 | Cc1nc(N2CCN(Cc3ccc(C(F)(F)F)cc3)C2=O)sc1-c1cc[nH]n1 | 212 to 213
84 | COC(=O)c1sc(-c2ccc(OCc3ccc([N+](=O)[O-])cc3)c(OC)c2)cc1NC(C)=O | 193 to 194
85 | O=C(c1cc2ccnc(Cl)c2[nH]1)N1CCOCC1 | 170 to 171
86 | CCOC(=O)CC(O)Cc1ccc([N+](=O)[O-])cc1 (stereo unspecified) | 71 to 72
87 | CNC(=O)C1(C)NCCc2c1n(F)c1ccccc21 (stereo unspecified) | 238
88 | Cc1c(SCCCCl)ccnc1CSc1ncccn1 | 83 to 85
89 | Cc1cc2nc3[nH]c4ccc(Br)cc4c3nc2cc1C | 319 to 322
90 | O=C(c1ccc(-n2ccnc2)cc1)N1CCN(S(=O)(=O)c2cc3cc(Cl)ccc3[nH]2)CC1 | 155 to 165
91 | CC(C)N=C(N=c1ccccn1CCc1ccccc1Br)NC(C)C | 125 to 128
92 | O=C1N=C(Cc2c[nH]c3ccccc23)C(CCc2cc(C(F)(F)F)cc(C(F)(F)F)c2)O1 (stereo unspecified) | 178 to 180
93 | C#CCOCCCCCCCCCC(=O)O | < 30
94 | Nc1ccc(-c2ccccc2)cc1N | 96 to 99
95 | CS(=O)(=O)c1ccc(C2=C(c3ccccc3)CN(C3CCCCC3)C2=O)cc1 | 183 to 185
96 | O=Cc1cc(Cl)c(O)c(O)c1Cl | 176 to 178
